Source: patent US20250049705A1, “PHARMACEUTICAL COMPOSITION COMPRISING TIGECYCLINE” (ZAMBON S.p.A., priority 2021, published 2025)

Legend:
[1] = Storage of a solution of tigecycline (degradation in aqueous solution); assay type: physicochemical; settings: degradation by oxidation and epimerization; 24 hours at 5° C., 25° C. and 40° C.
[2] = tested on: Mycobacterium abscessus; test: Anti-mycobacterial activity in infected THP-1 macrophages (CFU of cell lysates); assay type: cell-based
Procedure: Modification of the Dulbecco Eagle medium (Cellgro 15-017-cv) supplemented with: • Heat-inactivated fetal calf serum (Atlas Biologicals, Fort Collins, CO, F-0500-A) (10%) • LCM (10%)
Medium conditioned by L929: L-929 (CCL-1) (ATCC) cells secrete the macrophage colony-stimulating factor (M-CSF), the cytokine that differentiates bone marrow macrophages/monocyte progenitors into a homogeneous population of mature macrophages. They are seeded at 4.7×10^5 cells in 55 ml of DMEM+10% of fetal calf serum in a ball of 75 cm2. Cells are left to grow for 3 days and then the supernatant is collected and filtered through a 0.45 μm filter, aliquoted and frozen at −20° C.
The cell-free filtrate is used in DMEM media. • L-glutamine (Sigma G-7513) (2 mM) • HEPES buffer (Sigma H-0887) (10 mM) Antibiotic/antimycotic (Sigma A-9909) (1×) • non-essential amino acids MEM (Sigma M-7145) (1×) • 2-mercaptoethanol (Sigma M-6250) (50 nM)
THP-1 cells were expanded for 2 weeks.
Complete DMEM media free of antibiotic/antimycotic were not changed during the 3-day test.
On day 0, the media were removed from the cells and replaced with 0.2 mL of antibiotic/antimycotic-free DMEM containing Mycobacterium abscessus at a ratio of 10 bacteria per macrophage.
The tissue culture plates were placed inside closed Ziploc bags and transported to the incubator. Once inside the incubator, the bags were opened. The cells were incubated with the bacteria for 2 hours.
After the infection, the extracellular bacteria were removed by washing each well once with PBS. Then 2 mL of complete DMEM medium free of antibiotics/antimycotics and various drug concentrations were added.
Each drug concentration was tested in triplicate. Culture plates were incubated with antibiotics at 37° C.+5% CO2 for 3 days.

CN(C)c1cc(NC(=O)CNC(C)(C)C)c(O)c2c1C[C@H]1C[C@H]3[C@H](N(C)C)C(O)=C(C(N)=O)C(=O)[C@@]3(O)C(O)=C1C2=O [Pure Tigecycline, tigecycline]
stability in aqueous solution [1]: extremely unstable | Day 1 CFU ([2]; pure tigecycline 1 μg/ml): 287 CFU | Day 2 CFU ([2]; pure tigecycline 1 μg/ml): 2067 CFU | Day 3 CFU ([2]; pure tigecycline 1 μg/ml): 2667 CFU | Day 1 CFU ([2]; pure tigecycline 2 μg/ml): 263 CFU | Day 2 CFU ([2]; pure tigecycline 2 μg/ml): 203 CFU | Day 3 CFU ([2]; pure tigecycline 2 μg/ml): 1743 CFU | Day 1 CFU ([2]; pure tigecycline 4 μg/ml): 427 CFU | Day 2 CFU ([2]; pure tigecycline 4 μg/ml): 123 CFU | Day 3 CFU ([2]; pure tigecycline 4 μg/ml): 267 CFU | Day 1 CFU ([2]; pure tigecycline 8 μg/ml): 303 CFU | Day 2 CFU ([2]; pure tigecycline 8 μg/ml): 203 CFU | Day 3 CFU ([2]; pure tigecycline 8 μg/ml): 220 CFU | Day 1 CFU ([2]; pure tigecycline 16 μg/ml): 333 CFU | Day 2 CFU ([2]; pure tigecycline 16 μg/ml): 203 CFU | Day 3 CFU ([2]; pure tigecycline 16 μg/ml): 153 CFU | Day 1 CFU ([2]; pure tigecycline 24 μg/ml): 287 CFU | Day 2 CFU ([2]; pure tigecycline 24 μg/ml): 90 CFU | Day 3 CFU ([2]; pure tigecycline 24 μg/ml): 143 CFU
